# Patent US11878972B2, “Treatment of neurological disorders” (TORQUR AG, priority 2016, dated 2024)
# Where two headings read alike, the source gives them in different places.
# Assays:
# [1] = system: STHdh^Q7/Q7 and STHdh^Q111/Q111 cells; assay: LDH assay (cytotoxicity); details: for LDH activity compared to control: at higher concentrations; for LDH production: time points between 24 h and 48 h
# Protocol: Cytotoxicity of test compounds was measured using the lactate dehydrogenase (LDH) assay from Roche, Switzerland according to the manufacturer's instructions.
# STHdh^Q111/Q111 and STHdh^Q7/Q7 (Coriell Institute for Medical Research, USA) were cultured in DMEM (Invitrogen, USA) supplemented with FBS (Invitrogen, USA) 10%, Geniticine (G418, Biochrom, Germany)) 1% und antibiotic antimycotic (Invitrogen, USA) 1% in a humidified incubator at 37° C. and 5% CO2. […] 10^4 STHdh^Q7/Q7 and STHdh^Q111/Q111 cells per well were seeded in a 96 well plate incubated with Cpd.
# [2] = Maximal tolerated dose (MTD) / tolerability in BALB/c nude mice; type: in vivo; details: for MTD: female, BALB/c nude, mouse, in vivo, po
# Protocol: In order to find a dose that could be used for further experiments and in order to show tolerability of compounds of the present invention, female BALB/c nude mice were treated with Cpd. 3 and Cpd. 8 by per oral (p.o.) gavage twice for five days with a two day dose holiday in between. Compounds were administered in the following vehicle: 20% Hydroxypropyl-β-cyclodextrin (HPBCD), 10% DMSO and 70% water. The major endpoint was to evaluate the body weight loss and animal survival. The body weights were recorded daily for the dosing days and at least twice weekly thereafter. The animal death was checked daily for survival. Animals were to be evaluated for 7 days post the final dose. The tolerated dose was defined as the dose that results in less than 20% mean body-weight loss, and no treatment related death during the study. The randomized block design was used to assign experimental animals to groups. First, the experimental animals were divided into homogeneous blocks according to their initial body weight. Secondly, within each block, randomization of experimental animals to treatments was conducted.
# Animal supplier: Shanghai Lingchang Bio-Technology Co. Ltd (LC, Shanghai, China). Animal Certificate No.: 2013001803305. The mice were kept in individual ventilated cage (IVC) systems at constant temperature and humidity with 5 animals in each cage.
# Diet: Mouse diet, C060 irradiation sterilized dry granule food. Animals had free access during the entire study period. Water: RO water, autoclaved before using. Animals had free access to sterile drinking water.
# OVCAR-3 and SUDHL/6 tumor bearing BALB/c nude mice were treated with Cpd. 3, p.o. at 100 mg/kg for 21 or 15 consecutive days, respectively under the same conditions. Body weight of the mice was stable.
# [3] = system: 51Q-HTT-Exon1-eGFP transfected HEK cells; assay: Immune cytochemistry, count of mutHTT aggregates; type: cell-based, human; details: Cpd. 8 130 nM, Cpd. 3 400 nM
# Protocol: HEK cells were transiently transfected with pcDNA3.1/V5-His vector from Clontech (Mountain View, USA) containing the expression sequence for Exon1 of HTT with a 19Q (no aggregation) or 51Q extension and enhanced green fluorescence protein (eGFP) tag using Attractene Transfection Reagent (Qiagen, Netherlands). 1×10^6 cells were seeded in a 6 well plate. On the next day 2 μg DNA were mixed with 95.5 μl transfection media and 4.5 μl transfection reagent. After an incubation time of 15 min the mixture was added to the cells. After 72 hours cells were harvested or fixed for analysis.
# HEK cells were seeded in poly-L-lysine (Sigma-Aldrich, USA) coated coverslips in 24 well plates at 10^4 cells per well and transiently transfected with 19Q- or 51Q-HTT-Exon1-eGFP. Cells were treated with Compounds as described under A for 8 or 24 hours. This incubation ended 72 hours after transfection. Cells were fixed with 4% (para-formaldehyde) PFA. Coverslips were fixed glass slides using mounting media that contained 4′,6-Diamidin-2-phenylindol (DAPI) (FIG. 7C). Nuclei and aggregates containing HTT-Exon1-eGFP were counted manually. 10 000 cells were counted per sample (FIG. 7D).
# [4] = R6/2 pharmacokinetics (plasma, striatum, cerebellum, cortex); type: in vivo, mouse; details: R6/2 mice, single oral dose, one hour; Cpd. 3 75, 50, 25 mg/kg; Cpd. 8 25, 16, 8 mg/kg
# Protocol: In order to test exposure of brain areas, R6/2 mice were treated with a single oral dose of Cpd. 3 (75 mg/kg, 50 mg/kg, 25 mg/kg) or Cpd. 8 (25 mg/kg, 16 mg/kg, 8 mg/kg), 3 animals per group. After one hour plasma was collected and animals were sacrificed. Striatum, cerebellum and cortex was separately snap frozen and analyzed for compound concentration using LC/MS/MS.
# [5] = system: female NMRI mice, nonepileptic (sham-SE) and epileptic (pilo-SE); assay: Maximal electroshock seizure threshold test (MEST); type: in vivo, mouse
# Protocol: A total of 166 adult female NMRI mice were used obtained from Charles River (Sulzfeld, Germany) at a weight range of 21-25 g (mice). Animals were kept under the following conditions: Housing: Animals were housed in groups of max. 8 mice under controlled conditions (temperature: 22±1° C.; humidity: 50% 60%/), under a 12-h light-dark cycle (lights on at 6:00 a.m.). Feeding: Standard laboratory chow (Altromin 1324 standard diet, Altromin Spezialfutter GmbH, Lage, Germany) was provided ad libitum. Drinking water: Tap water was provided ad libitum.
# The MEST determines a population seizure threshold in groups of ˜20 animals and not the threshold for an individual animal. In the present study, the MEST was determined by a staircase procedure as previously described. A stimulator (BMT Medizintechnik, Berlin, Germany) that delivered a constant current (adjustable from 1-200 mA regardless of the impedance of the animal) with sinusoidal pulses (50/sec) for 0.2 sec was used.
# Current administration was performed via bilateral transcorneal stimulation (using copper electrodes). Before transcorneal stimulation, a drop of tetracaine solution (2%) was administered to the eyes of the mouse for local anesthesia. Two minutes later, the mouse was restrained by hand to press the copper electrodes on both corneas while the stimulus was applied by stepping on a foot pedal switch connected with the stimulator. Electrodes were covered with soft leather and soaked with saline before each current application. […] The first stimulation was started with a current near to the control threshold.
# 3 (HCl): 40/100 mg in 10 ml (Suspension; 5% PEG 400 and 2% Tween 80, HPBCD (10%6)) • Cpd. 8 (HCl): 12.5/25 mg in 10 ml (5% PEG 400 and 2% Tween 80, HPBCD (10%))
# Statistical analysis were calculated using Student's t-test. All tests were used two-sided; a P<0.05 was considered significant.
# We performed no special tests for the determination of adverse effects. Mice were observed about 30 min after injection in their home cages for obvious sedation or reduction of wellbeing. Five minutes before electrical stimulation mice were again observed in their home cages and two minutes before stimulation during handling procedure for treatment with local anaesthesia. Every obvious variation from normal behavior was noted. Only phenobarbital induced noticeable sedation which lasted for more than 60 min. All other test drugs (including vehicle solutions) were tolerated without any obvious adverse effects.
# PK in B57BL/6J mice = details: for half-life: B57BL/6J, in vivo
# Protocol: 8, 50 mg/kg was administered to B57BL/6J mice by gavage. Animals were housed in temperature controlled rooms with free access to food and water. Test items were weighed in a glass vial and dissolved first in DMSO. Tween 80 was added subsequently and finally, the formulation was completed with HPβCD 20%. […] Blood was collected in tubes containing K3-EDTA and stored on ice until centrifugation at 3000×g (10 min. 4° C.). The plasma supernatant was separated and kept at −20° C. until being assayed. Thigh muscle and brain of mice were snap frozen. The brain and muscle samples were homogenized in PBS using the Precellys 24/Dual homogeniser.
# Samples were analyzed by LC-MS. Calibration standards were prepared by spiking 20 μl of drug free blank plasma with calibration solution. […] Samples were vigorously shaken and centrifuged for 10 minutes at 6000 g and 20° C. […] An aliquot was transferred to 200 μl sampler vials and subsequently subjected to LC-MS with an injection volume of 1.5 μl.
# [6] = 40 mg/kg Cpd. 3 p.o., pretreatment 1 h
# [7] = 40 mg/kg Cpd. 3 p.o., pretreatment 3 h
# [8] = 100 mg/kg Cpd. 3 p.o., pretreatment 3 h
# [9] = 12.5 mg/kg Cpd. 8 p.o., pretreatment 3 h
# [10] = 25 mg/kg Cpd. 8 p.o., pretreatment 1 h
# [11] = 25 mg/kg Cpd. 8 p.o., pretreatment 3 h
# [12] = 25 mg/kg Cpd. 8 p.o., pretreatment 24 h
structure (smiles),measurement,setting,value
"Nc1cc(C(F)F)c(-c2nc(N3C4CCC3COC4)nc(N3C4CCC3COC4)n2)cn1 [Compound 3, 5-(4-(3-oxa-8-azabicyclo[3.2.1]octan-8-yl)-6-(3-oxa-8-azabicyclo[3.2.1]octan-8-yl)-1,3,5-triazin-2-yl)-4-(difluoromethyl)pyridin-2-amine]",LDH activity compared to control,[1],decreased compared to control
same,LDH production,[1],reduced LDH production
same,Body weight of the mice,"[2]; OVCAR-3 and SUDHL/6 tumor bearing BALB/c nude mice, p.o. 100 mg/kg for 21 or 15 consecutive days",stable
same,MTD,"[2]; BALB/c mice, p.o., twice for five days with a two day dose holiday, read-out: MTD",100 mg/kg
same,reduction of number of mutHTT aggregates,[3]; 8 hours of treatment,66%
same,reduction of number of mutHTT aggregates,[3]; 24 hours of treatment,73%
same,Tissue concentrations reached,[4],well in the efficacious range
same,CC50 Pilo-SE (epileptic),[5]; [6],17.99 ± 1.39 mA
same,CC50 Sham-SE (nonepileptic),[5]; [6],15.14 ± 1.06 mA
same,Threshold difference between nonepileptic and epileptic,[5]; [6],19%
same,CC50 Pilo-SE (epileptic),[5]; [7],18.20 ± 1.35 mA
same,CC50 Sham-SE (nonepileptic),[5]; [7],17.49 ± 1.20 mA
same,Threshold difference between nonepileptic and epileptic,[5]; [7],4%
same,"Threshold difference between vehicle and drug threshold, nonepileptic",[5]; [7],6%
same,CC50 Pilo-SE (epileptic),[5]; [8],20.85 ± 1.38 mA
same,CC50 Sham-SE (nonepileptic),[5]; [8],16.72 ± 1.72 mA
same,Threshold difference between nonepileptic and epileptic,[5]; [8],25%
same,"Threshold difference between vehicle and drug threshold, epileptic",[5]; [8],9%
same,"Threshold difference between vehicle and drug threshold, nonepileptic",[5]; [8],2%
same,anticonvulsant effect (overall),[5]; parameters tested in this study,slight but inconsistent anticonvulsant effect
same,Brain AUC,"PK in B57BL/6J mice; mouse, po, 50 mg/kg, single",30600 ng·h/mL
same,Brain Cmax,"PK in B57BL/6J mice; mouse, po, 50 mg/kg, single",7.7 µg/g
"C[C@H]1COCCN1c1nc(-c2cnc(N)cc2C(F)F)nc(N2CCOCC2)n1 [Compound 8, (S)-4-(difluoromethyl)-5-(4-(3-methylmorpholino)-6-morpholino-1,3,5-triazin-2-yl)pyridin-2-amine]",LDH activity compared to control,[1],decreased compared to control
same,LDH production,[1],reduced LDH production
same,MTD,[2],25 mg/kg
same,reduction of number of mutHTT aggregates,[3]; 8 hours of treatment,55%
same,reduction of number of mutHTT aggregates,[3]; 24 hours of treatment,77%
same,Tissue concentrations reached,[4],sufficient levels were reached at all concentrations
same,Threshold difference between nonepileptic and epileptic,[5]; [9],−1%
same,"Threshold difference between vehicle and drug threshold, epileptic",[5]; [9],−1%
same,"Threshold difference between vehicle and drug threshold, nonepileptic",[5]; [9],8%
same,Threshold difference between nonepileptic and epileptic,[5]; [10],−14%
same,"Threshold difference between vehicle and drug threshold, epileptic",[5]; [10],−9%
same,Threshold difference between nonepileptic and epileptic,[5]; [11],−22%
same,"Threshold difference between vehicle and drug threshold, epileptic",[5]; [11],6%
same,"Threshold difference between vehicle and drug threshold, nonepileptic",[5]; [11],30%
same,Threshold difference between nonepileptic and epileptic,[5]; [12],5%
same,"Threshold difference between vehicle and drug threshold, epileptic",[5]; [12],−2%
same,decrease of the CC50,"[5]; Cpd. 8, epileptic mice, pretreatment time reduced to 1 h",9%
same,half-life,"PK in B57BL/6J mice; mouse, oral, 50 mg/kg, half-life, as stated in the discussion of the Tsc1 GFAP study",5 h
same,half-life,"PK in B57BL/6J mice; mouse, po, 50 mg/kg, half-life in mice (estimated), mice, single oral 50 mg/kg",4.7 to 4.8 h
same,oral bioavailability,"PK in B57BL/6J mice; mice, single oral 50 mg/kg",good oral bioavailability
